PMC6767265, “Cytotoxicity and Apoptosis Induction of Coumarins and Carbazole Alkaloids from Clausena Harmandiana” (Molecules, 2019)
Several values for one entry are separate records, joined by “and”; a condition that tells them apart may be missing. Identical values can stand only once. Marks after values point to notes of the source that are not given here.

Experiments:
[1] = DPPH radical scavenging assay; assay type: biochemical; settings: for DPPH Assay IC50 / IC50: 30 min in the dark, absorbance 517 nm; for DPPH radical scavenging activity classification: classified from IC50 in µg/mL
Procedure: The 2,2–diphenyl–1–picrylhydrazyl (DPPH) radical scavenging assay was conducted as per the previous method. Briefly, the stock solutions of 10 mM DPPH was prepared in methanol. The DPPH was mixed with samples (100 µL each) at various concentrations (1−500 µM) in 96 wells plate and incubated for 30 min in a dark condition. The absorbance of DPPH radical was measured at 517 nm using a microplate reader (Tecan, Lyon, France). Trolox was used as a positive control. The half maximum inhibitory concentration (IC50 value) was calculated from the plot of percentage of DDPH radical inhibition versus concentration of samples using the following formula: % DPPH radical inhibition = [(Ab − As)/Ab] × 100,(1) where Ab = absorbance of the reagent blank, and As = absorbance of the sample. Each experiment was done in five replications and results are expressed as average values.

[2] = Ferric reducing antioxidant power (FRAP) assay; assay type: biochemical; settings: 100 µM compound
Procedure: FRAP assay was performed following the pervious study with slight modification. FRAP reagent was prepared by mixing 300 mM acetate buffer (pH 3.6), 20 mM ferric chloride solution and 10 mM TPTZ solution in the ratio of 10:1:1 and incubated at 37 °C for 30 min. Then, 150 µL of FRAP reagent was added with 50 µL of the sample (100 µM of isolated compounds or 100 µg/mL of the CH2Cl2 crude extract) in each well of the 96-wells plate. The absorbance was measured at 595 nm using microplate reader (Tecan, Lyon, France). Trolox was used as a positive control. The FRAP value was calculated from the linear equation between the absorbance and ferrous sulfate standard curves (y = 0.0548x + 0.0213, R^2 = 0.9989) and expressed as µM of ferrous sulfate equivalents.

[3] = tested on: human lung adenocarcinoma cell line (SK-LU-1); assay: Cell viability assay (neutral red), SK-LU-1; assay type: cell-based; parameters: key to IC50 SK-LU-1: inactive: Inactive means cell viability percentage was >50% at the maximum concentration used (>100 µM for the compound or >100 µg/mL for the extract); settings: for IC50 SK-LU-1 / IC50: 24 h, neutral red, inactive = viability >50% at >100 µM; for Selectivity Index SK-LU-1: cancer cells over noncancerous Vero cells
Procedure: (§1) The human lung adenocarcinoma cell line (SK-LU-1), human colon carcinoma cell line (HCT116), human hepatocellular carcinoma cell line (HepG2) and noncancerous African green monkey kidney epithelial cell line (Vero) were cultured in Dulbecco’s modified Eagle’s medium (DMEM) supplemented with 10% fetal bovine serum, 100 IU/mL penicillin and […] streptomycin. Cells were incubated at 37 °C with 95% air and 5% CO2 until they reached approximately 80% confluence before use.
(§2) Cell viability assay was assessed by neutral red (NR). Briefly, cells at a density of 3 × 10^4 cells/well were seeded in 96-wells plate and incubated for 24 h. […] After incubation time, cells were washed with PBS. NR reagent (50 µg/mL) was added to each well and incubated for another 2 h. After that, cells were washed with PBS and lyzed with 0.33% HCl in isopropanol. Cisplatin was used as a positive control. The absorbance of NR was detected using microplate reader (Tecan, Lyon, France) at 520 nm. The percentage of cell viability was calculated vis-à-vis the untreated cells and cytotoxicity was expressed as the inhibition concentration at 50% (IC50). The final DMSO concentration was not exceed 0.1%v/v to lessen the cytotoxicity (<10%).

[4] = tested on: human hepatocellular carcinoma cell line (HepG2); assay: Cell viability assay (neutral red), HepG2; assay type: cell-based; settings: for IC50: 24 h, neutral red; for Selectivity Index HepG2: cancer cells over noncancerous Vero cells
Procedure: as §1
(§3) Cell viability assay was assessed by neutral red (NR). Briefly, cells at a density of 3 × 10^4 cells/well were seeded in 96-wells plate and incubated for 24 h. The sample at concentration, ranging from 10 to 500 µM, were added and incubated for 24 h. After incubation time, cells were washed with PBS. NR reagent (50 µg/mL) was added to each well and incubated for another 2 h. After that, cells were washed with PBS and lyzed with 0.33% HCl in isopropanol. Cisplatin was used as a positive control. The absorbance of NR was detected using microplate reader (Tecan, Lyon, France) at 520 nm. The percentage of cell viability was calculated vis-à-vis the untreated cells and cytotoxicity was expressed as the inhibition concentration at 50% (IC50). The final DMSO concentration was not exceed 0.1%v/v to lessen the cytotoxicity (<10%).

[5] = tested on: human colon carcinoma cell line (HCT116); assay: Cell viability assay (neutral red), HCT116; assay type: cell-based; parameters: key to IC50 HCT116: inactive: Inactive means cell viability percentage was >50% at the maximum concentration used (>100 µM for the compound or >100 µg/mL for the extract); settings: for IC50 HCT116 / IC50: 24 h, neutral red, inactive = viability >50% at >100 µM; for Selectivity Index HCT116: cancer cells over noncancerous Vero cells
Procedure: as §1, §2

[6] = tested on: noncancerous African green monkey kidney epithelial cell line (Vero); assay: Cell viability assay (neutral red), Vero; assay type: cell-based; parameters: key to IC50 Vero: inactive: Inactive means cell viability percentage was >50% at the maximum concentration used (>100 µM for the compound or >100 µg/mL for the extract); settings: 24 h, inactive = viability >50% at >100 µM
Procedure: as §1, §3

HepG2 cells = assay: Mode of cell death by Annexin V-FITC/PI staining, flow cytometry; assay type: cell-based, human
Source text: In this study, double staining of cells by Annexin V-FITC/propidium iodide (PI) was used to differentiate apoptosis from necrosis. The stages of apoptosis can be distinguished from necrotic cell death by flow cytometry using Annexin V-FITC/PI double staining of HepG2 cells. During the early stages of apoptosis, the phosphatidylserine comprising the cell membrane will externalize to be exposed to the surface of apoptotic cells and bind with Annexin V-FITC, showing a cell dot plot in Quadrant 4. The cell dot plot is positively stained with Annexin V-FITC but negatively stained with PI (+/−). When cells are damaged or undergo a late state of apoptosis, cells will lose their membrane integrity, including nuclear membrane integrity, so that PI can pass through the nuclear membrane, showing a cell dot plot in Quadrant 2. […] During cell undergo necrotic cell death, cells are stained and appear in Quadrant 1 (−/+). Normal cells are not stained and appear in Quadrant 3 (−/−). The total apoptotic cell death percentage was counted from the percentage of cells undergoing an early state and late state of apoptosis gathering from Quadrants 4 and 2, while the necrotic cell death percentage was counted from Quadrant 1, as shown in Figure 2.
The Annexin V-FITC and PI apoptosis assay kit (BioLegend, San Diego, CA, USA) was used to determine mode of cell death as per previous report. The HepG2 cells (8 × 10^5 cell/mL) were seeded in a 24-well plate and incubated for 24 h. The compounds at a concentration of 1 x IC50 and 2 x IC50 were added and incubated for 12 and 24 h. After that, cells were washed with PBS and cold BioLegend’s cell staining buffer followed by staining with Annexin V-FITC and PI and cell were incubated in the dark for 15 min. The cells were analyzed by flow cytometry (BD FACSCanto II, BD Biosciences, San Jose, CA, USA) and the percentage of cells in different populations were calculated with FACSDiva software.

SMILES	DPPH Assay IC50 [1]	IC50 [1]	IC50 ([4]; Homo sapiens, HepG2)	IC50 ([3]; Homo sapiens, SK-LU-1)	IC50 ([5]; Homo sapiens, HCT-116)	DPPH radical scavenging activity classification [1]	FRAP Value [2]	Selectivity Index SK-LU-1 [3]	Selectivity Index HepG2 [4]	Selectivity Index HCT116 [5]	IC50 Vero [6]	further results
COc1ccc2c(c1)[nH]c1c(CC=C(C)C)c(O)c(C=O)cc12 [7-Methoxyheptaphylline (7), 7-methoxyheptaphylline]	96.8 ± 1.1^g µg/mL	313 ± 3.4 µM	65.5 ± 2.7 µM			low radical scavenger	1.4 ± 0.1^g µM FeSO4 Equivalents	1.0)	(1.5)	(1.0)	inactive^bB	FRAP Value ([2]; listed as 7-methoxyheptaphylline): 1.4 µM FeSO4 Equivalents; IC50 SK-LU-1 [3]: inactive^bF; IC50 HCT116 [5]: inactive^bE
C=CC(C)(C)c1cc2c(O)c3c(c(C(C)(C)C=C)c2oc1=O)OC(C)(C)C=C3 [Clausarin (2), clausarin]	2.3 ± 0.3^a µg/mL	6 ± 0.8 µM	17.6 ± 2.1 µM	6.9 ± 1.6 µM	44.9 ± 1.4 µM	high radical scavenger	45.2 ± 1.0^b µM FeSO4 Equivalents	(11.3)	(4.4)	(1.7)		FRAP Value ([2]; listed as clausarin): 45.2 ± 1.0 µM FeSO4 Equivalents and 45.2 µM FeSO4 Equivalents; apoptotic cell death percentage (total, Quadrants 4 and 2) (HepG2 cells; HepG2, 1 × IC50, 12 h): 44.0 ± 1.2%; necrotic cell death percentage (Q1, Annexin V-FITC/PI −/+) (HepG2 cells; HepG2, 1 × IC50, 12 h): 6.8 ± 1.4%; necrotic cell death percentage (Q1, Annexin V-FITC/PI −/+) (HepG2 cells; HepG2, 2 × IC50, 12 h): 27.4 ± 3.8%; IC50 ([6]; Chlorocebus sabaeus, Vero): 78.2 ± 3 µM
N.N.[Cl][Pt][Cl] [Cisplatin, reference compound]								(2.3)	(4.6)	(1.4)	inactive^dB	IC50 [3]: 42.7 ± 1.9 µM; IC50 [4]: 21.8 ± 3 µM; IC50 [5]: 71.9 ± 2.7 µM
CC(C)=CCc1c(O)c(C=O)cc2c1[nH]c1ccccc12 [Heptaphylline (1), heptaphylline]	93.5 ± 2.2^f µg/mL	335 ± 7.8 µM	37.8 ± 2.6 µM	83.1 ± 2.6 µM	74.7 ± 2.1 µM	low radical scavenger	1.0 ± 0.0^g µM FeSO4 Equivalents	(1.2)	(2.6)	(1.3)	inactive^dB	FRAP Value ([2]; listed as heptaphylline): 1.0 µM FeSO4 Equivalents
COc1ccc2c(c1)[nH]c1cc(O)c(C=O)cc12 [7-Methoxymukonal (5), 7-methoxymukonal]	6.8 ± 0.5^b µg/mL	26.2 ± 2 µM	82.6 ± 2.8 µM			moderate radical scavenger	47.0 ± 0.6^a µM FeSO4 Equivalents	(1.0)	(1.2)	(1.0)	inactive^bB	FRAP Value ([2]; listed as 7-methoxymukonal): 47.0 µM FeSO4 Equivalents; IC50 SK-LU-1 [3]: inactive^bF; IC50 HCT116 [5]: inactive^bE

Second part, led by results:

DPPH Assay IC50 [1]	IC50 [1]	IC50 ([4]; Homo sapiens, HepG2)	IC50 ([3]; Homo sapiens, SK-LU-1)	IC50 ([5]; Homo sapiens, HCT-116)	SMILES	DPPH radical scavenging activity classification [1]	FRAP Value [2]	Selectivity Index SK-LU-1 [3]	Selectivity Index HepG2 [4]	Selectivity Index HCT116 [5]	IC50 Vero [6]	further results
4.2 ± 0.1^a µg/mL	16.8 ± 0.6 µM				Cc1c(C)c2c(c(C)c1O)CCC(C)(C(=O)O)O2 (stereo not drawn) [Trolox, 6-hydroxy-2,5,7,8-tetramethylchroman-2-carboxylic acid, reference compound]	moderate radical scavenger	37.7 ± 0.8^c µM FeSO4 Equivalents					FRAP Value ([2]; listed as trolox): 37.7 µM FeSO4 Equivalents
12.0 ± 0.8^c µg/mL	38.3 ± 2.5 µM	29.9 ± 3.2 µM	67.3 ± 1.2 µM	63.6 ± 2.3 µM	C=CC(C)(C)c1c2c(c(O)c3ccc(=O)oc13)C=CC(C)(C)O2 [Nordentatin (6), nordentatin]	moderate radical scavenger	9.0 ± 1.1^e µM FeSO4 Equivalents	(1.5)	(3.3)	(1.6)	inactive^cB	FRAP Value ([2]; listed as nordentatin): 9.0 µM FeSO4 Equivalents
>500^h µg/mL	> 500 µM	47.6 ± 2.8 µM	45.4 ± 2.5 µM	73.9 ± 2.5 µM	C=CC(C)(C)c1c2c(c(OC)c3ccc(=O)oc13)C=CC(C)(C)O2 [Dentatin (3), dentatin]	no activity	4.7 ± 0.1^f µM FeSO4 Equivalents	(2.2)	(2.1)	(1.4)	inactive^cB	FRAP Value ([2]; listed as dentatin): 4.7 µM FeSO4 Equivalents
